Results on four molecules are retold here after patent US7572827B2, “Use of angelicin and of its structural analogues for the treatment of thalassemia” (Universita' Degli Studi Di Ferrara, priority 2002, dated 2009).

Assay [1] relates to human cell line K562. Briefly: Erythroid differentiation of K562 cells (benzidine-positive cells). In kind it is cell-based. The following applies: for Erythroid differentiation (%) = percentage of K562 cells that react positively to benzidine: optimal concentration of each compound (cytosine arabinoside 1 μM, bergapten 200 μM, angelicin 400 μM), six experiments, control 3-4. As for the experimental part:
(§1) The biological activity of angelicin was evaluated by examining the capacity of that compound to modulate the expression of genes for gamma-globin in the human cell line K562, which is capable of differentiating in the erythroid manner by expressing genes for gamma-globin if subjected to treatment with modifiers of the biological response that are suitable for the purpose (3, 18, 19).
(§2) The level of differentiation was evaluated by analyzing the positive reaction of the cells to benzidine (3). The production of haemoglobin was evaluated by electrophoresis on cellulose acetate and by colouring the gel with a solution based on benzidine/H2O2 (3). The expression of the genes encoding for gamma-globin was evaluated by quantitative RT-PCR (reverse transcriptase PCR) (3).

Assay [2] concerns gamma-globin mRNA in K562 cells. Briefly: Gamma-globin mRNA accumulation in K562 cells by quantitative RT-PCR. It counts as cell-based, human. The note with it: K562 cells treated for 6 days, cytosine arabinoside 1 μM, bergapten 200 μM, angelicin 400 μM, control = 1. As for the experimental part:
as §1, §2

In assay [3] the test system is gamma-globin mRNA in human erythroid precursors. As to the kind of experiment: Gamma-globin mRNA accumulation in human erythroid precursors isolated from peripheral blood (Fibach two-stage culture), quantitative RT-PCR. It counts as cell-based. The note with it: for Gamma-globin mRNA, increase compared with untreated control erythroid precursors: human erythroid precursors, angelicin 500 μM, hydroxyurea 120 μM, control = 1, quantitative RT-PCR. The text has this:
In order to check whether angelicin was also capable of stimulating the production of mRNA for gamma-globin in human erythroid precursors isolated from peripheral blood, the technique published by Fibach et al. (20, 21) was used. This technique provides for two stages: in the first stage, the cells isolated from peripheral blood of a subject who is healthy or suffering from a haemopoietic pathology, such as sickle cell anaemia or beta-thalassaemia, are sown in a culture medium to which 10% of conditioned medium derived from the vesicle carcinoma cell line 5637 has been added. The second stage consists in cultivating the isolated cells in a suitable culture medium, supplemented by the erythropoietin hormone, 30% bovine foetal serum, 2-mercaptoethanol, albumin, glutamine and desamethasone in order to permit the proliferation and maturing of stem cells of the erythroid type. In this stage the cells can be treated with potential HbF inducers.

Assay [4] concerns human cell line K562. As to the kind of experiment: Haemoglobin production in K562 cells (cellulose acetate electrophoresis, benzidine/H2O2 staining). The following applies: 400 μM angelicin for 6 days. In kind it is cell-based. As for the experimental part: as §2

As to `O=c1ccc2ccc3occc3c2o1` [angelicin], in assay [1], the “Erythroid differentiation (%) = percentage of K562 cells that react positively to benzidine” value is recorded as 55-60%. Moreover, in assay [1] (angelicin 400 μM, 6 days, control K562 cells 3-4%), the “percentage of K562 cells that react positively to benzidine” value is on record as 55-60%. Also, the “Gamma-globin mRNA, increase compared with untreated control K562 cells” value in assay [2] amounted to 44.94. Besides, the “increase in the production of mRNA for gamma-globin compared with the same untreated cells” value in assay [3] (human erythroid precursors from peripheral blood treated with angelicin) came to 20.53 times. Also, the “Gamma-globin mRNA, increase compared with untreated control erythroid precursors” value in assay [3] turned out to be 20.53. For the same molecule, in assay [4], the chief haemoglobin produced result is “Hb Portland (alpha2gamma2)”.

Consider `COc1c2ccoc2cc2oc(=O)ccc12` [bergapten, 5-methoxypsoralen], for which, in assay [1], the “Erythroid differentiation (%) = percentage of K562 cells that react positively to benzidine” value was 50-60%. For the same molecule, in assay [2], the “Gamma-globin mRNA, increase compared with untreated control K562 cells” value is 3.48.

`Nc1ccn([C@@H]2O[C@H](CO)[C@@H](O)[C@@H]2O)c(=O)n1` [cytosine arabinoside, reference compound]: the “Erythroid differentiation (%) = percentage of K562 cells that react positively to benzidine” value in assay [1] is reported as 75-80%. The “Gamma-globin mRNA, increase compared with untreated control K562 cells” value in assay [2] amounted to 3.24.

`NC(=O)NO` [hydroxyurea, reference compound]: the “Gamma-globin mRNA, increase compared with untreated control erythroid precursors” value in assay [3] is recorded as 6.96.
